Data set [1] addresses T1, cAMP and cAMP-inhibited cGMP 3',5'-cyclic phosphodiesterase 10A (Homo sapiens, UniProt Q9Y233). The data set can be described thus: Inhibition of human recombinant PDE10A using cAMP as substrate preincubated for 20 mins followed by substrate addition measured after 2 hrs by FRET assay.
Data set [2] can be described thus: Equilibrium solubility of the compound in phosphate buffer at pH 7.4. In kind it is physicochemical.
Data set [3] addresses cGMP-dependent 3',5'-cyclic phosphodiesterase (Homo sapiens, UniProt O00408). The data set can be described thus: Inhibition of human recombinant PDE2A using cAMP as substrate preincubated for 20 mins followed by substrate addition measured after 2 hrs by FRET assay.
The target of data set [4] is T1, cAMP and cAMP-inhibited cGMP 3',5'-cyclic phosphodiesterase 10A. Kind of data set: Binding affinity to human recombinant PDE10A after 15 mins by surface plasmon resonance assay. (In general: SPR reads the build-up and loss of mass on a sensor chip optically.)
The target is the same in data set [5]. Kind of data set: Inhibition of human recombinant PDE10A using cAMP as substrate at 30 uM preincubated for 20 mins followed by substrate addition measured after 2 hrs by FRET assay.

The IC50 is the point on the concentration scale where inhibition reaches its midpoint. One may read the thermodynamic solubility as solubility found after equilibrating the solid with the medium. A word on the inhibition: it is the share of the control response that was lost under treatment.

Structures are written as SMILES. Converted amounts (≈) assume the structure as drawn.

cGMP-dependent 3',5'-cyclic phosphodiesterase, sequence (O00408 whole entry): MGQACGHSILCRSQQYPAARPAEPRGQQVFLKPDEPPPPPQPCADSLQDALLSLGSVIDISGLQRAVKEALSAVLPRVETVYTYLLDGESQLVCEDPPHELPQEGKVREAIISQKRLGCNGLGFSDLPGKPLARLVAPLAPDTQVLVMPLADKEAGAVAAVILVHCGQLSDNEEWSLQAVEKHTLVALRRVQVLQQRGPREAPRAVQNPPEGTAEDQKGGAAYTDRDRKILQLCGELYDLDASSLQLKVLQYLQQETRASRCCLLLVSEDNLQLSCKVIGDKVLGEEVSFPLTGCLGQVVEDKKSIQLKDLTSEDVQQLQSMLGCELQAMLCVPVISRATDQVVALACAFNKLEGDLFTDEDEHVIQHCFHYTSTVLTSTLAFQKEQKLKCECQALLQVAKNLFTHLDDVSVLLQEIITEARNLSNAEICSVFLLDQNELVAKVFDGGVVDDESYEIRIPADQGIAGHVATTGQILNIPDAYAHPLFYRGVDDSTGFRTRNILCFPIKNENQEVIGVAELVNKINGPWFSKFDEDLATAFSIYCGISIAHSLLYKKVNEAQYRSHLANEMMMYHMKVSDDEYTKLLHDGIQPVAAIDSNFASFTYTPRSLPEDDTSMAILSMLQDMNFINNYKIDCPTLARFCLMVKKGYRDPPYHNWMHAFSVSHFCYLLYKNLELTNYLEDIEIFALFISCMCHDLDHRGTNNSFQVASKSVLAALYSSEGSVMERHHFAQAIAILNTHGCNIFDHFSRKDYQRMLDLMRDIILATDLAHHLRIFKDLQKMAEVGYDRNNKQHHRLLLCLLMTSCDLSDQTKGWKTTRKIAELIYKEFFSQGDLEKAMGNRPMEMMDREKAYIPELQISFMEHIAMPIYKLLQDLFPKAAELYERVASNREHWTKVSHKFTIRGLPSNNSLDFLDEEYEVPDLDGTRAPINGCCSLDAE
T1 sequence (Q9Y233 whole entry): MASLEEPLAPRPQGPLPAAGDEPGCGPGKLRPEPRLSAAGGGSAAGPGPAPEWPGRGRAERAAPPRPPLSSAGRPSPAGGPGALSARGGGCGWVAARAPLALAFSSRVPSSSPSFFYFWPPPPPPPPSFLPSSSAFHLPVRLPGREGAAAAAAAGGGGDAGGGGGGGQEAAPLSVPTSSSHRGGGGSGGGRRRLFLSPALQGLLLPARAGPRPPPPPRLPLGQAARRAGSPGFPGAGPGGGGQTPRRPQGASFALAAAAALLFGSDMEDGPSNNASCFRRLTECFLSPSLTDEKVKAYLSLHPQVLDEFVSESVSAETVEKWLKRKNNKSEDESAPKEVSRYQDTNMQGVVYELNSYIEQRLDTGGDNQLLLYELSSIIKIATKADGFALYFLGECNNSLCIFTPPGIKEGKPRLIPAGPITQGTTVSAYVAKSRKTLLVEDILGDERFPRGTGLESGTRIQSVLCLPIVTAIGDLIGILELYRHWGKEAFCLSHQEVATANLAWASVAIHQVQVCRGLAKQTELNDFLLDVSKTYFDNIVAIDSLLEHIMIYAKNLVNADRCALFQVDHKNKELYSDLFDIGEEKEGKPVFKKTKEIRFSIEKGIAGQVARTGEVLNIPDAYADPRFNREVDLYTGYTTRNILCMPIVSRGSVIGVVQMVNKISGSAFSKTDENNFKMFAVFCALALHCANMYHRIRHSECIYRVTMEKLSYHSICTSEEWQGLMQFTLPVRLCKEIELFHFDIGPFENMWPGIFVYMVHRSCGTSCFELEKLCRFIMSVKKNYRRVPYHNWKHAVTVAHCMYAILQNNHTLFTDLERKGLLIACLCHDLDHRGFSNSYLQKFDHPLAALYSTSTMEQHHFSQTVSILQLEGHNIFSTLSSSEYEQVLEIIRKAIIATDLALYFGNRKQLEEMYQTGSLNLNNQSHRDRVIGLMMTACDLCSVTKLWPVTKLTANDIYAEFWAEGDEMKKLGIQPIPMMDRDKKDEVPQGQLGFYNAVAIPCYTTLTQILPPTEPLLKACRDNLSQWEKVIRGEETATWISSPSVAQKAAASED

Regarding `Cc1c(Cl)cccc1C(=O)Nc1cc(-c2nc3ccccc3[nH]2)[nH]n1`, the IC50 was 100 nM in data set [1] and over 100000 nM in data set [3]. Further, the thermodynamic solubility in data set [2] was under 1 µM.
In the same order, the values of `Cc1c(Cl)cccc1C(=O)Nc1ncc(-c2nc3ccccc3n2C)s1` are 16 nM, over 100000 nM and under 1 µM.
On to `Cc1cc(-c2ccco2)[nH]n1`, for which the IC50 in data set [4] was found to be 851000 nM.
The same measure, in the same setting: the result for `Cc1csc(-c2ccccn2)n1` reads 324000 nM.
On to `Cc1nocc1C(=O)Nc1cc(-c2nc3ccccc3[nH]2)[nH]n1`, for which, in data set [1], the half-maximal inhibitory concentration (IC50) came out at 3800 nM. This compound yielded a solubility (thermodynamic) in data set [2] of 2 µM (≈ 0.617 µg/mL).
In the same order, the values of `N#Cc1cccc(C(=O)Nc2ncc(-c3nc4ccccc4n3CCN)s2)c1` are 490 nM and 13 µM (≈ 5.05 µg/mL).
`Cc1cccc(C(=O)Nc2cc(-c3nc4ccccc4[nH]3)[nH]n2)c1Cl`: the concentration for half-maximal inhibition (IC50) in data set [1] was determined as 280 nM. The solubility (thermodynamic) in data set [2] was under 1 µM.
For `CS(=O)(=O)c1cccc(C(=O)Nc2cc(-c3nc4ccccc4[nH]3)[nH]n2)c1`, the IC50 in data set [1] was over 30000 nM. The inhibition in data set [5] was found to be 23%.
As for `Cn1c(-c2cnc(NC(=O)c3cccc(C#N)c3)s2)nc2ccccc21`, in data set [1], the 50% inhibitory concentration (IC50) was 120 nM. The compound also showed a thermodynamic solubility in data set [2] of under 1 µM.
For the compound `N#Cc1cccc(C(=O)Nc2ncc(-c3nc4ccccc4[nH]3)s2)c1`, the 50% inhibitory concentration (IC50) is 110 nM in data set [1] and over 100000 nM in data set [3]. This compound gave a thermodynamic solubility in data set [2] of 1 µM (≈ 0.345 µg/mL).

Values taken from ChEMBL document CHEMBL3745613, “Fragment-assisted hit investigation involving integrated HTS and fragment screening: Application to the identification of phosphodiesterase 10A (PDE10A) inhibitors” (Bioorg Med Chem Lett, 2016).
